The text below walks through data of ChEMBL document CHEMBL5126592, “Design, synthesis and activity against drug-resistant bacteria evaluation of C-20, C-23 modified 5-O-mycaminosyltylonolide derivatives” (Eur J Med Chem, 2022).

Common to all, as to type: functional
Settings in all cases: time 16-20 hrs

One test concerns Staphylococcus aureus. Description: Antibacterial activity against Staphylococcus aureus ATCC 25923 incubated for 16 to 20 hrs by broth microdilution method. (In general: In broth dilution the organism is exposed to a series of concentrations in liquid medium.)
In a further test the test system is Escherichia coli. Description: Antibacterial activity against Escherichia coli ATCC 25922 incubated for 16 to 20 hrs by broth microdilution method.
Another test concerns Cronobacter sakazakii. Description: Antibacterial activity against Cronobacter sakazakii ATCC 29544 incubated for 16 to 20 hrs by broth microdilution method.
The next test relates to Klebsiella pneumoniae. Briefly: Antibacterial activity against Klebsiella pneumoniae ATCC 13883 incubated for 16 to 20 hrs by broth microdilution method.

≈ marks a conversion by molar mass, not a printed value.

With `CC[C@H]1OC(=O)C[C@@H](O)[C@H](C)[C@@H](O[C@@H]2O[C@H](C)[C@@H](O)[C@H](N(C)C)[C@H]2O)[C@@H](CCN(Cc2ccc(N(C)C)cc2)Cc2cn(-c3cnc4ccccc4c3)nn2)C[C@@H](C)C(=O)/C=C/C(C)=C/[C@@H]1CN1CCC(O)CC1`, the MIC (commonly the lowest concentration found to suppress growth) against Staphylococcus aureus was found to be 2 µg/mL (≈ 1.95 µM); against Escherichia coli, 16 µg/mL (≈ 15.6 µM); against Cronobacter sakazakii, 32 µg/mL (≈ 31.3 µM); in the test with Klebsiella pneumoniae it was 16 µg/mL (≈ 15.6 µM).

For `CC[C@H]1OC(=O)C[C@@H](O)[C@H](C)[C@@H](O[C@@H]2O[C@H](C)[C@@H](O)[C@H](N(C)C)[C@H]2O)[C@@H](CCN(C)Cc2cn(-c3cnc4ccccc4c3)nn2)C[C@@H](C)C(=O)/C=C/C(C)=C/[C@@H]1CN1CC(C)CC(C)C1` (stereo partly drawn), the minimum inhibitory concentration (MIC) in the test with Staphylococcus aureus was determined as 2 µg/mL (≈ 2.18 µM); against Escherichia coli it was 8 µg/mL (≈ 8.73 µM); in the test on Cronobacter sakazakii, 16 µg/mL (≈ 17.5 µM); against Klebsiella pneumoniae, 8 µg/mL (≈ 8.73 µM).

As to `CC[C@H]1OC(=O)C[C@@H](O)[C@H](C)[C@@H](O[C@@H]2O[C@H](C)[C@@H](O)[C@H](N(C)C)[C@H]2O)[C@@H](CCN(Cc2cn(-c3cnc4ccccc4c3)nn2)Cc2nccs2)C[C@@H](C)C(=O)/C=C/C(C)=C/[C@@H]1CO`, the minimal inhibitory concentration (MIC) in the test on Staphylococcus aureus is 0.5 µg/mL (≈ 0.553 µM); with Escherichia coli, 32 µg/mL (≈ 35.4 µM); against Cronobacter sakazakii it was 32 µg/mL (≈ 35.4 µM); with Klebsiella pneumoniae, 32 µg/mL (≈ 35.4 µM).

`CC[C@H]1OC(=O)C[C@@H](O)[C@H](C)[C@@H](O[C@@H]2O[C@H](C)[C@@H](O)[C@H](N(C)C)[C@H]2O)[C@@H](CCN(C)Cc2cn(-c3cnc4ccccc4c3)nn2)C[C@@H](C)C(=O)/C=C/C(C)=C/[C@@H]1CN(C)CC`: the MIC against Staphylococcus aureus came out at 1 µg/mL (≈ 1.16 µM); against Escherichia coli, 8 µg/mL (≈ 9.28 µM); in the test with Cronobacter sakazakii, 8 µg/mL (≈ 9.28 µM); with Klebsiella pneumoniae, 8 µg/mL (≈ 9.28 µM).

As to `CC[C@H]1OC(=O)C[C@@H](O)[C@H](C)[C@@H](O[C@@H]2O[C@H](C)[C@@H](O)[C@H](N(C)C)[C@H]2O)[C@@H](CCN(Cc2ccccc2)Cc2cn(-c3cnc4ccccc4c3)nn2)C[C@@H](C)C(=O)/C=C/C(C)=C/[C@@H]1CN(CC)CC`, the MIC against Staphylococcus aureus turned out to be 0.25 µg/mL (≈ 0.263 µM); against Escherichia coli, 8 µg/mL (≈ 8.4 µM); against Cronobacter sakazakii, 8 µg/mL (≈ 8.4 µM); in the test on Klebsiella pneumoniae, 8 µg/mL (≈ 8.4 µM).

For `CC[C@H]1OC(=O)C[C@@H](O)[C@H](C)[C@@H](O[C@@H]2O[C@H](C)[C@@H](O)[C@H](N(C)C)[C@H]2O)[C@@H](CCN(Cc2ccc(Br)cc2)Cc2cn(-c3cnc4ccccc4c3)nn2)C[C@@H](C)C(=O)/C=C/C(C)=C/[C@@H]1CI`, the MIC turned out to be 4 µg/mL (≈ 3.68 µM) against Staphylococcus aureus, 32 µg/mL (≈ 29.5 µM) in the test on Escherichia coli, 16 µg/mL (≈ 14.7 µM) against Cronobacter sakazakii and 32 µg/mL (≈ 29.5 µM) against Klebsiella pneumoniae.

As to `CC[C@H]1OC(=O)C[C@@H](O)[C@H](C)[C@@H](O[C@@H]2O[C@H](C)[C@@H](O)[C@H](N(C)C)[C@H]2O)[C@@H](CCN(Cc2cn(-c3cnc4ccccc4c3)nn2)Cc2ccco2)C[C@@H](C)C(=O)/C=C/C(C)=C/[C@@H]1CI`, the minimum inhibitory concentration (MIC) against Staphylococcus aureus came out at 2 µg/mL (≈ 2.01 µM); against Escherichia coli it was 32 µg/mL (≈ 32.1 µM); in the test with Cronobacter sakazakii, 16 µg/mL (≈ 16 µM); with Klebsiella pneumoniae, 16 µg/mL (≈ 16 µM).

For `CC[C@H]1OC(=O)C[C@@H](O)[C@H](C)[C@@H](O[C@@H]2O[C@H](C)[C@@H](O)[C@H](N(C)C)[C@H]2O)[C@@H](CCN(Cc2ccc(C)cc2)Cc2cn(-c3cnc4ccccc4c3)nn2)C[C@@H](C)C(=O)/C=C/C(C)=C/[C@@H]1CO`, the MIC against Staphylococcus aureus came out at 0.5 µg/mL (≈ 0.549 µM); in the test with Escherichia coli, 16 µg/mL (≈ 17.6 µM); in the test with Cronobacter sakazakii, 16 µg/mL (≈ 17.6 µM); in the test with Klebsiella pneumoniae it was 16 µg/mL (≈ 17.6 µM).

With `CC[C@H]1OC(=O)C[C@@H](O)[C@H](C)[C@@H](O[C@@H]2O[C@H](C)[C@@H](O)[C@H](N(C)C)[C@H]2O)[C@@H](CCN(Cc2ccc(NC(C)=O)cc2)Cc2cn(-c3cnc4ccccc4c3)nn2)C[C@@H](C)C(=O)/C=C/C(C)=C/[C@@H]1CO`, the minimal inhibitory concentration (MIC) in the test with Staphylococcus aureus turned out to be 2 µg/mL (≈ 2.1 µM); against Escherichia coli, 32 µg/mL (≈ 33.5 µM); in the test on Cronobacter sakazakii it was 32 µg/mL (≈ 33.5 µM); against Klebsiella pneumoniae, 32 µg/mL (≈ 33.5 µM).

Consider `CC[C@H]1OC(=O)C[C@@H](O)[C@H](C)[C@@H](O[C@@H]2O[C@H](C)[C@@H](O)[C@H](N(C)C)[C@H]2O)[C@@H](CCN(Cc2cn(-c3cnc4ccccc4c3)nn2)Cc2ccco2)C[C@@H](C)C(=O)/C=C/C(C)=C/[C@@H]1CO`, for which the minimal inhibitory concentration (MIC) came to 0.125 µg/mL (≈ 0.141 µM) in the test with Staphylococcus aureus, 8 µg/mL (≈ 9.02 µM) against Escherichia coli, 32 µg/mL (≈ 36.1 µM) against Cronobacter sakazakii and 16 µg/mL (≈ 18 µM) in the test with Klebsiella pneumoniae.

With `CC[C@H]1OC(=O)C[C@@H](O)[C@H](C)[C@@H](O[C@@H]2O[C@H](C)[C@@H](O)[C@H](N(C)C)[C@H]2O)[C@@H](CCN(Cc2cn(-c3cnc4ccccc4c3)nn2)Cc2cncs2)C[C@@H](C)C(=O)/C=C/C(C)=C/[C@@H]1CO`, the MIC in the test on Staphylococcus aureus stood at 0.5 µg/mL (≈ 0.553 µM); in the test with Escherichia coli, 32 µg/mL (≈ 35.4 µM); in the test on Cronobacter sakazakii it was 32 µg/mL (≈ 35.4 µM); with Klebsiella pneumoniae, 32 µg/mL (≈ 35.4 µM).

With `CCc1ccc(CN(CC[C@H]2C[C@@H](C)C(=O)/C=C/C(C)=C/[C@H](CO)[C@@H](CC)OC(=O)C[C@@H](O)[C@H](C)[C@H]2O[C@@H]2O[C@H](C)[C@@H](O)[C@H](N(C)C)[C@H]2O)Cc2cn(-c3cnc4ccccc4c3)nn2)cc1`, the MIC was 0.5 µg/mL (≈ 0.54 µM) in the test on Staphylococcus aureus, 32 µg/mL (≈ 34.6 µM) in the test with Escherichia coli, 16 µg/mL (≈ 17.3 µM) in the test on Cronobacter sakazakii and 16 µg/mL (≈ 17.3 µM) with Klebsiella pneumoniae.

Consider `CC[C@H]1OC(=O)C[C@@H](O)[C@H](C)[C@@H](O[C@@H]2O[C@H](C)[C@@H](O)[C@H](N(C)C)[C@H]2O)[C@@H](CCN(Cc2cn(-c3cnc4ccccc4c3)nn2)Cc2ccco2)C[C@@H](C)C(=O)/C=C/C(C)=C/[C@@H]1CN1CCCCCC1`, for which the MIC was 1 µg/mL (≈ 1.03 µM) in the test on Staphylococcus aureus, 4 µg/mL (≈ 4.13 µM) with Escherichia coli, 8 µg/mL (≈ 8.26 µM) with Cronobacter sakazakii and 4 µg/mL (≈ 4.13 µM) against Klebsiella pneumoniae.

In the case of `CC[C@H]1OC(=O)C[C@@H](O)[C@H](C)[C@@H](O[C@@H]2O[C@H](C)[C@@H](O)[C@H](N(C)C)[C@H]2O)[C@@H](CCN(Cc2ccc(N(C)C)cc2)Cc2cn(-c3cnc4ccccc4c3)nn2)C[C@@H](C)C(=O)/C=C/C(C)=C/[C@@H]1CO`, the minimum inhibitory concentration (MIC) in the test with Staphylococcus aureus turned out to be 0.25 µg/mL (≈ 0.266 µM); with Escherichia coli it was 8 µg/mL (≈ 8.51 µM); against Cronobacter sakazakii, 16 µg/mL (≈ 17 µM); against Klebsiella pneumoniae, 16 µg/mL (≈ 17 µM).

For `CC[C@H]1OC(=O)C[C@@H](O)[C@H](C)[C@@H](O[C@@H]2O[C@H](C)[C@@H](O)[C@H](N(C)C)[C@H]2O)[C@@H](CCN(Cc2cn(-c3cnc4ccccc4c3)nn2)Cc2c(OC)cc(OC)cc2OC)C[C@@H](C)C(=O)/C=C/C(C)=C/[C@@H]1CO`, the minimal inhibitory concentration (MIC) against Staphylococcus aureus turned out to be 0.5 µg/mL (≈ 0.506 µM); against Escherichia coli, 16 µg/mL (≈ 16.2 µM); against Cronobacter sakazakii it was 32 µg/mL (≈ 32.4 µM); in the test with Klebsiella pneumoniae it was 32 µg/mL (≈ 32.4 µM).

Turning to `CC[C@H]1OC(=O)C[C@@H](O)[C@H](C)[C@@H](O[C@@H]2O[C@H](C)[C@@H](O)[C@H](N(C)C)[C@H]2O)[C@@H](CCN(Cc2ccccc2)Cc2cn(-c3cnc4ccccc4c3)nn2)C[C@@H](C)C(=O)/C=C/C(C)=C/[C@@H]1CN1CC(C)CC(C)C1` (stereo partly drawn), the MIC in the test with Staphylococcus aureus amounted to 4 µg/mL (≈ 4.03 µM); against Escherichia coli, 16 µg/mL (≈ 16.1 µM); in the test on Cronobacter sakazakii, 16 µg/mL (≈ 16.1 µM); against Klebsiella pneumoniae, 16 µg/mL (≈ 16.1 µM).

As for `CC[C@H]1OC(=O)C[C@@H](O)[C@H](C)[C@@H](O[C@@H]2O[C@H](C)[C@@H](O)[C@H](N(C)C)[C@H]2O)[C@@H](CCN(Cc2ccc(N(C)C)cc2)Cc2cn(-c3cnc4ccccc4c3)nn2)C[C@@H](C)C(=O)/C=C/C(C)=C/[C@@H]1CN(CC)CC`, the MIC stood at 0.5 µg/mL (≈ 0.502 µM) against Staphylococcus aureus, 4 µg/mL (≈ 4.02 µM) against Escherichia coli, 16 µg/mL (≈ 16.1 µM) in the test on Cronobacter sakazakii and 8 µg/mL (≈ 8.04 µM) in the test on Klebsiella pneumoniae.
